Patent US20080188503A1, “New Compounds II” (AstraZenaca AB, priority 2006, published 2008)

What follows are compounds tested against T1, recombinant human GSK3β (Homo sapiens, UniProt P49841) (assay: GSK3β Scintillation Proximity Assay (ATP competition)). Details: recombinant human GSK3β SPA; 1 μM ATP, 1 μM biotinylated peptide substrate; Ki calculated with Km of ATP 20 μM.
T1 construct: purchased Dundee University, UK
Assay type: biochemical
Experimental: Determination of ATP Competition in Scintillation Proximity GSK3β Assay.
GSK3β Scintillation Proximity Assay.
The competition experiments were carried out in duplicate with 10 different concentrations of the inhibitors in clear-bottom microtiter plates (Wallac, Finland). A biotinylated peptide substrate, Biotin-Ala-Ala-Glu-Glu-Leu-Asp-Ser-Arg-Ala-Gly-Ser(PO3H2)-Pro-Gln-Leu (AstraZeneca, Lund), was added at a final concentration of 1 μM in an assay buffer containing 1 mU recombinant human GSK3β (Dundee University, UK), 12 mM morpholinepropanesulfonic acid (MOPS), pH 7.0, 0.3 mM EDTA, 0.01% β-mercaptoethanol, 0.004% Brij 35 (a […] detergent), 0.5% glycerol and 0.5 μg BSA/25 μl. The reaction was initiated by the addition of 0.04 μCi [γ-^33P]ATP (Amersham, UK) and unlabelled ATP at a final concentration of 1 μM and assay volume of 25 μl. After incubation for 20 minutes at room temperature, each reaction was terminated by the addition of 25 μl stop solution containing 5 mM EDTA, 50 μM ATP, 0.1% Triton X-100 and 0.25 mg streptavidin coated Scintillation Proximity Assay (SPA) beads (Amersham, UK). After 6 hours the radioactivity was determined in a liquid scintillation counter (1450 MicroBeta Trilux, Wallac). The inhibition curves were analysed by non-linear regression using GraphPad Prism, USA. The Km value of ATP for GSK3β, used to calculate the inhibition constants (Ki) of the various compounds, was 20 μM.

T1 sequence (P49841 whole entry): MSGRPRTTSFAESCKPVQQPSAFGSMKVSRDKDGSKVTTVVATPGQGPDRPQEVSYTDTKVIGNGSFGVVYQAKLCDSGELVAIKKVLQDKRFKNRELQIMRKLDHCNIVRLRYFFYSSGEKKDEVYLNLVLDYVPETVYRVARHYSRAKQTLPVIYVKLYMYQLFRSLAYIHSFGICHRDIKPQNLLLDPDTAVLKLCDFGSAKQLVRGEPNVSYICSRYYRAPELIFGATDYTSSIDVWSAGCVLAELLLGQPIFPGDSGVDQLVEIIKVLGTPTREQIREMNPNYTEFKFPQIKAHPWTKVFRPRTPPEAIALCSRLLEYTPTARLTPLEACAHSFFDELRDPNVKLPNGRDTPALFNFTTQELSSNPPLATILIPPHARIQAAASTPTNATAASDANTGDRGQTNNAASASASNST

Row | SMILES | Ki
1 | Cc1ncc(-c2nc(NC3CCOCC3)ncc2F)n1C1CCOCC1 [Example 34, 5-Fluoro-4-[2-methyl-1-(tetrahydro-2H-pyran-4-yl)-1H-imidazol-5-yl]-N-(tetrahydro-2H-pyran-4-yl)pyrimidin-2-amine] | 87 nM
2 | CC(=O)N1CCC(Nc2ncc(F)c(-c3cnc(C)n3C3CCOCC3)n2)CC1 [Example 35, N-(1-Acetylpiperidin-4-yl)-5-fluoro-4-[2-methyl-1-(tetrahydro-2H-pyran-4-yl)-1H-imidazol-5-yl]pyrimidin-2-amine] | 120 nM
3 | Cc1ncc(-c2nc(NC3CCCCC3)ncc2F)n1C1CCOCC1 [Example 36, N-Cyclohexyl-5-fluoro-4-[2-methyl-1-(tetrahydro-2H-pyran-4-yl)-1H-imidazol-5-yl]pyrimidin-2-amine] | 16 nM
4 | Cc1ncc(-c2nc(NC3CCN(Cc4ccccc4)CC3)ncc2F)n1C1CCOCC1 [Example 37, N-(1-Benzylpiperidin-4-yl)-5-fluoro-4-[2-methyl-1-(tetrahydro-2H-pyran-4-yl)-1H-imidazol-5-yl]pyrimidin-2-amine] | 140 nM
5 | Cc1ncc(-c2nc(NC3CCN(C(=O)c4ccccc4)CC3)ncc2F)n1C1CCOCC1 [Example 38, N-(1-Benzoylpiperidin-4-yl)-5-fluoro-4-[2-methyl-1-(tetrahydro-2H-pyran-4-yl)-1H-imidazol-5-yl]pyrimidin-2-amine] | 57 nM
6 | Cc1ncc(-c2nc(NC3CCN(C(=O)Cc4ccccc4)CC3)ncc2F)n1C1CCOCC1 [Example 39, 5-Fluoro-4-[2-methyl-1-(tetrahydro-2H-pyran-4-yl)-1H-imidazol-5-yl]-N-[1-(phenylacetyl)piperidin-4-yl]pyrimidin-2-amine] | 36 nM
7 | Cc1ncc(-c2nc(NC3CCN(C(=O)OCc4ccccc4)CC3)ncc2F)n1C1CCOCC1 [Example 40, Benzyl 4-({5-fluoro-4-[2-methyl-1-(tetrahydro-2H-pyran-4-yl)-1H-imidazol-5-yl]pyrimidin-2-yl}amino)piperidine-1-carboxylate] | 31 nM
8 | Cc1ncc(-c2nc(NC3CCN(S(C)(=O)=O)CC3)ncc2F)n1C1CCOCC1 [Example 41, 5-Fluoro-N-[1-(methylsulfonyl)piperidin-4-yl]-4-[2-methyl-1-(tetrahydro-2H-pyran-4-yl)-1H-imidazol-5-yl]pyrimidin-2-amine] | 120 nM
9 | Cc1ncc(-c2nc(NC3CCN(C(=O)C(F)(F)F)CC3)ncc2F)n1C1CCOCC1 [Example 42, 5-Fluoro-4-[2-methyl-1-(tetrahydro-2H-pyran-4-yl)-1H-imidazol-5-yl]-N-[1-(trifluoroacetyl)piperidin-4-yl]pyrimidin-2-amine] | 91 nM
10 | Cc1ncc(-c2nc(NC3CCN(S(=O)(=O)c4ccccc4)CC3)ncc2F)n1C1CCOCC1 [Example 43, 5-Fluoro-4-[2-methyl-1-(tetrahydro-2H-pyran-4-yl)-1H-imidazol-5-yl]-N-[1-(phenylsulfonyl)piperidin-4-yl]pyrimidin-2-amine] | 53 nM
11 | Cc1ncc(-c2nc(NC3CCN(S(=O)(=O)Cc4ccccc4)CC3)ncc2F)n1C1CCOCC1 [Example 44, N-[1-(Benzylsulfonyl)piperidin-4-yl]-5-fluoro-4-[2-methyl-1-(tetrahydro-2H-pyran-4-yl)-1H-imidazol-5-yl]pyrimidin-2-amine] | 80 nM
